According to EP2913333A1 (priority 2014, dated 2015):
Counter-ions that a name gives are not always drawn. Like-named read-outs stand apart in the source and are kept apart here.

What was measured:
E. feacium DltA = target: T1, E. feacium DltA (Enterococcus faecium, UniProt Q3XZT7); experiment: in vitro DltA activity assay (luminescence, IC50 determination); type: biochemical
T1 sequence (Q3XZT7 1-504): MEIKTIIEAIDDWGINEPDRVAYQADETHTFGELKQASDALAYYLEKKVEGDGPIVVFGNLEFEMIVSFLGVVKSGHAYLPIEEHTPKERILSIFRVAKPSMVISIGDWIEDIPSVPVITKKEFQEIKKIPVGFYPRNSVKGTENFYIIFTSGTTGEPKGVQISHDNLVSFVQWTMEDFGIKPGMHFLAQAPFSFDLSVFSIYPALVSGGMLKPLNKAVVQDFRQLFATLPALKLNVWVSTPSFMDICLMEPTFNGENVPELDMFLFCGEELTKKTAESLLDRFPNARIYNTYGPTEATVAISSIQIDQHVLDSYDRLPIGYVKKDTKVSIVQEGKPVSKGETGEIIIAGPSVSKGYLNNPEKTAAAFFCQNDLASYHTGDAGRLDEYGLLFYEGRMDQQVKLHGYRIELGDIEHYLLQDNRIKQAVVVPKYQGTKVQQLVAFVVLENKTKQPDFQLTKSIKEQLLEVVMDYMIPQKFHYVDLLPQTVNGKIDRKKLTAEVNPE
Procedure: (§1) The effect of the compounds of the invention on DltA enzymes has been based on the measure of their inhibition of DltA activity in vitro. To this end, recombinant proteins DltA were expressed and purified after cloning of the genes of S. aureus, E. faecalis, E. faecium and S. agalactiae as described thereafter. The capacity of the compounds of the invention to inhibit DltA enzymatic activity was assessed using the DltA assays as described below: • The dltA gene was amplified from chromosomal DNA of S. aureus, E. faecalis, E. faecium and S. agalactiae and introduced into E. coli BL21 (Invitrogen, Carlsbad, CA) following manufacturer's instruction. Bacteria were grown at 37°C under aerobic conditions and isopropyl-beta-D-thiogalactopyranoside (IPTG) was added to 0.5-1 mM when OD600 of the bacterial culture had reached 0.5. After a further incubation for 3 hours, cells were harvested by centrifugation. Purification of the recombinant DltA protein was performed by affinity chromatography on nickel-nitrilotriacetic acid (Ni-NTA) column following manufacturer's instructions (Qiagen). Fractions containing recombinant DltA protein were adjusted to 50% glycerol and stored at -20°C until use.
(§2) The binding potency of the inhibitors against DltA enzyme was assessed by IC50 determination in an in vitro DltA activity assay. The assay buffer "AB" contained 50 mM Hepes pH8.0, 10mM MgCl2, 50mM KCI, 0.012% Triton-X100, 10mM DTT and 100nM Myelin-basic protein. The following components were added in a white polystyrene Costar plate up to a final volume of 30µL: 3µL DMSO, or inhibitor dissolved in DMSO and 27µL DltA enzyme in AB. After 30min of preincubation at room temperature, 30µL of Substrates mix in AB were added in each well to a final volume of 60µL. This reaction mixture was then composed of DltA (produced in house from S. aureus, E. faecalis, E. faecium and S. agalactiae), 0.5mM D-Alanine (Sigma), 0.5-5µM ATP (Sigma) and 0.05 u/ml inorganic pyrophosphatase (Sigma) in assay buffer. After typically 1-2hours of incubation at room temperature (conversion rate around 30%), 30µL of the revelation mix were added to a final volume of 90µL, including the following constituents at the respective final concentrations: 10000 u/ml luciferase (Sigma), 30µM D-luciferin (Sigma), 100µM N-acetylcysteamine (Aldrich). Luminescence intensity was immediately measured on a Fluostar Optima (BMG) (excitation 360nm, emission 520nm) and converted into inhibition percentages.
(§3) For compounds interfering with the luminescent signal (quenching), the same experiment without DltA enzyme was performed to allow quenching determination and correction.

S. aureus DltA = target: T2, S. aureus DltA (Staphylococcus aureus, UniProt Q2FZW6); experiment: as above; type: biochemical
T2 construct: made in house; host or cells: E. coli BL21
T2 sequence (Q2FZW6 1-485): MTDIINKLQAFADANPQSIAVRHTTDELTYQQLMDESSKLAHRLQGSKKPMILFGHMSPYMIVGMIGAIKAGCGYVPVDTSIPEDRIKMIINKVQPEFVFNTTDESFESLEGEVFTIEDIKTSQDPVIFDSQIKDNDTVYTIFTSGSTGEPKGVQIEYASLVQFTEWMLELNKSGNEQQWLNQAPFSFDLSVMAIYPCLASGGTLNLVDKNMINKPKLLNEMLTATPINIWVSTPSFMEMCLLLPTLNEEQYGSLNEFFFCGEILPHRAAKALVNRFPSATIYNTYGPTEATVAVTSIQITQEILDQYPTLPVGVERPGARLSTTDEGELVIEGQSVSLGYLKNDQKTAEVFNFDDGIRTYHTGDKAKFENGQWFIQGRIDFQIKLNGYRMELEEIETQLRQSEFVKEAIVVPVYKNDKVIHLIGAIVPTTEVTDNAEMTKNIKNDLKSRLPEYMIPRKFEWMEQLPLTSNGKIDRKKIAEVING
Procedure: as §1, §2, §3

S. Agalactiae DltA = target: T3, S. Agalactiae DltA (Streptococcus agalactiae serotype III, UniProt Q8VM67); experiment: biochemical
T3 sequence (Q8VM67 1-511): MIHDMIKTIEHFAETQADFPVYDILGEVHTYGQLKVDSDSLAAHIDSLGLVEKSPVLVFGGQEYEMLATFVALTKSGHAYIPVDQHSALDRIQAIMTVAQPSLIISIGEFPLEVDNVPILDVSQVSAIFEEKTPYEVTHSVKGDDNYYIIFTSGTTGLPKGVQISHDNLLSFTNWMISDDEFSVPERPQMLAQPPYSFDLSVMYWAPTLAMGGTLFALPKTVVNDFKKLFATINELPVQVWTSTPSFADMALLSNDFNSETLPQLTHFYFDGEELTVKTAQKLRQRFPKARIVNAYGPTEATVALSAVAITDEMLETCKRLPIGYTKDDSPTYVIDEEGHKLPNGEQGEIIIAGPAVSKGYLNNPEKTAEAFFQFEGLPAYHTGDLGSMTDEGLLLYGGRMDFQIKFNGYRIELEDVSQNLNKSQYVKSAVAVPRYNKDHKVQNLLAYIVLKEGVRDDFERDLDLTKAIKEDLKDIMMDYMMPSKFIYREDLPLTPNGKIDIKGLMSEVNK
Procedure: as §1, with “To” for “The effect of the compounds of the invention on DltA enzymes has been based on the measure of their inhibition of DltA activity in vitro. To”
as §2, §3

E. feacalis DltA = target: T4, E. feacalis DltA (Enterococcus faecalis, UniProt Q830N0); experiment: biochemical
T4 sequence (Q830N0 1-506): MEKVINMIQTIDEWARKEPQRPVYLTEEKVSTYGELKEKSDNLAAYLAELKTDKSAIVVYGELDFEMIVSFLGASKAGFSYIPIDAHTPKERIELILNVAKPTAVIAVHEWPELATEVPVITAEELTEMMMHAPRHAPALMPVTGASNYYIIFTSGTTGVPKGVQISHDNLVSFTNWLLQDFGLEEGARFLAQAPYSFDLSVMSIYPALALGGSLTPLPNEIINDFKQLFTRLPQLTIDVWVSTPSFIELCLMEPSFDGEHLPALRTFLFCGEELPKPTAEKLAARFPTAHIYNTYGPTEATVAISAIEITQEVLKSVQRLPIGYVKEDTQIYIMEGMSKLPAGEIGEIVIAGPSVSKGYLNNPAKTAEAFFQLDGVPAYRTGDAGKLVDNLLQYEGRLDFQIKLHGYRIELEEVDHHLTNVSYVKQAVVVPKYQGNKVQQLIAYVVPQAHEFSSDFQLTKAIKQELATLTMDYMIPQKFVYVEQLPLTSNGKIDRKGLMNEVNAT
Procedure: as §1, with “To” for “The effect of the compounds of the invention on DltA enzymes has been based on the measure of their inhibition of DltA activity in vitro. To”
as §2, §3

[1] = recombinant DltA, 30min preincubation at room temperature, 0.5mM D-Alanine, 0.5-5µM ATP, read-out: E. feacium DltA IC50

SMILES	IC50 (E. feacium DltA; [1]) [nM]	IC50 (S. aureus DltA) [nM]	IC50 (S. Agalactiae DltA) [nM]	IC50 (E. feacalis DltA) [nM]	IC50 (E. feacium DltA) [nM]
O=c1[nH]cnc2c(-c3ccc4c(c3)ncn4C3CCCCC3)cn(C3CCCC(O)C3)c12 (racemic) [Example 70A, 7-(1-Cyclohexyl-1H-benzimidazol-5-yl)-5-(3-hydroxy-cyclohexyl)-3,5-dihydro-pyrrolo[3,2-d]pyrimidin-4-one]	920	660	2400	570	–
O=c1[nH]cnc2c(-c3ccc4c(c3)ncn4C3CCCCC3)cn(C3CCC(O)C3)c12 (racemic) [Example 71A, 7-(1-Cyclohexyl-1H-benzimidazol-5-yl)-5-(3-hydroxy-cyclopentyl)-3,5-dihydro-pyrrolo[3,2-d]pyrimidin-4-one]	890	360	2700	360	–
O=c1[nH]cnc2c(-c3ccc4c(c3)ncn4C3CCCCC3)sc(N3CC[C@H](CO)C3)c12 [Example 7, 7-(1-Cyclohexyl-1H-benzoimidazol-5-yl)-5-((S)-3-hydroxymethyl-pyrrolidin-1-yl)-3H-thieno[3,4-d]pyrimidin-4-one]	120	70	3200	37	–
O=c1[nH]cnc2c(-c3ccc4c(c3)ncn4C3CCCCC3)sc(N3CCC(CCO)C3)c12 (stereo not shown) [Example 11, 7-(1-Cyclohexyl-1H-benzoimidazol-5-yl)-5-[3-(2-hydroxy-ethyl)-pyrrolidin-1-yl]-3H-thieno[3,4-d]pyrimidin-4-one]	190	140	5400	120	–
O=c1[nH]cnc2c(-c3ccc4c(c3)ncn4C3CCCCC3)sc(N3CCC(CO)(CO)C3)c12 [Example 13, 5-(3,3-Bis-hydroxymethyl-pyrrolidin-1-yl)-7-(1-cyclohexyl-1H-benzoimidazol-5-yl)-3H-thieno[3,4-d]pyrimidin-4-one]	140	44	980	41	–
O=c1[nH]cnc2c(-c3ccc4c(c3)ncn4C3CCCCC3)sc(N3CC4C(O)C4C3)c12 (stereo not shown) [Example 17, 7-(1-Cyclohexyl-1H-benzoimidazol-5-yl)-5-(6-hydroxy-3-aza-bicyclo[3.1.0]hex-3-yl)-3H-thieno[3,4-d]pyrimidin-4-one]	190	220	2200	85	–
O=c1[nH]cnc2c(-c3ccc4c(c3)ncn4C3CCCCC3)sc(N3CC4CNCC4C3)c12 (stereo not shown) [Example 25, 7-(1-Cyclohexyl-1H-benzoimidazol-5-yl)-5-(hexahydro-pyrrolo[3,4-c]pyrrol-2-yl)-3H-thieno[3,4-d]pyrimidin-4-one hydrochloride]	88	39	630	22	–
O=c1[nH]cnc2c(-c3ccc4c(c3)ncn4C3CCCCC3)sc(N3CCNCC3)c12 [Example 28, 7-(1-cyclohexyl-1H-benzoimidazol-5-yl)-5-piperazin-1-yl-3H-thieno[3,4-d]pyrimidin-4-one hydrochloride]	160	150	1200	48	–
O=c1[nH]cnc2c(-c3ccc4c(c3)ncn4C3CCCCC3)sc(N3C[C@@H]4[C@@H](CO)[C@@H]4C3)c12 [Example 30, 7-(1-Cyclohexyl-1H-benzimidazol-5-yl)-5-((1R,5S,6R)-6-hydroxymethyl-3-aza-bicyclo[3.1.0]hex-3-yl)-3H-thieno[3,4-d]pyrimidin-4-one]	320	220	2000	160	–
O=c1[nH]cnc2c(-c3ccc4c(c3)ncn4C3CCCCC3)sc(N3CC4CNCC4(CO)C3)c12 (stereo not shown) [Example 34, 7-(1-cyclohexyl-1H-benzoimidazol-5-yl)-5-hydroxymethyl-hexahydro-pyrrolo[3,4-c]pyrrol-2-yl)-3H-thieno[3,4-d]pyrimidin-4-one hydrochloride]	–	27	400	14	61
O=c1[nH]cnc2c(-c3ccc4c(c3)ncn4C3CCCCC3)sc(N3C[C@H](CO)[C@@H](CO)C3)c12 [Example 35, 5-((3R,4R)-3,4-Bis-hydroxymethyl-pyrrolidin-1-yl)-7-(1-cyclohexyl-1H-benzoimidazol-5-yl)-3H-thieno[3,4-d]pyrimidin-4-one]	93	54	870	39	–
CC1CCCC(n2cnc3cc(-c4sc(N5CC[C@H](CO)C5)c5c(=O)[nH]cnc45)ccc32)C1 (stereo partly shown) [Example 48]	110	68	–	–	–
